Measurements from publication PMC10914731, “Homo-BacPROTAC-induced degradation of ClpC1 as a strategy against drug-resistant mycobacteria” (Nature Communications, 2024).
In brackets after ≈: the same amount, converted by molar mass. Several values for one entry are separate records, joined by “and”; a condition that tells them apart may be missing. Identical values can stand only once. Like-named read-outs stand apart in the source and are kept apart here.

Key:
Mycobacterium avium = assay: microbe, parasite or virus in culture; type: cell-based
Enterobacter cloacae = assay: MIC ESKAPES panel, Enterobacter cloacae; type: cell-based
Method: (§1) Minimum inhibitory concentration (MIC) against ESKAPES panel of Gram positive and Gram negative pathogens (Enterococcus faecium, Staphylococcus aureus, Klebsiella pneumoniae, Acinetobacter baumannii, Pseudomonas aeruginosa, Enterobacter cloacae and Salmonella typhimurium [ESKAPES panel]) were determined at the FNDR by the standard broth dilution method [CLSI, M100]. […] Mueller Hinton broth (MHB) medium was used to grow ESKAPES panel strains. The individual cultures were added as 200 μL (inoculum of 3–7 × 10^5 cfu/ml) to the respective assay plates in each well to all columns, except the media control (200 μL of medium). […] The assay plates were incubated at 37 °C, and the results were noted on the 2nd day as turbidometric readout. The clear wells indicated inhibition of growth, while the turbid wells indicated uninhibited growth.

Caco-2 monolayers = assay: in vitro; conditions: human, Caco-2
Method in brief: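 Values are bidirectional Caco-2 apparent permeabilities, P(A−B) and P(B−A), given in 10^-6 cm s-1. The efflux ratio divides P(B−A) by P(A−B), and intrinsic permeability averages the two directions.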

Msm 607 = assay: microbe, parasite or virus in culture; type: cell-based
[1] = biological target: ClpC1 NTD protein (M. tuberculosis) (Mycobacterium tuberculosis, UniProt P9WPC9); assay: biochemical; type: binding; conditions: for Kd: SPR
[2] = test system: M. tuberculosis H37Rv (ATCC 27294); assay: microbe, parasite or virus in culture; type: cell-based
Mtb # 8673 = assay: microbe, parasite or virus in culture; type: cell-based
[3] = test system: Mtb (katG del) ATCC 35822; assay: microbe, parasite or virus in culture; type: cell-based
Salmonella typhimurium = assay: MIC ESKAPES panel, Salmonella typhimurium; type: cell-based
Method: as §1

Msm 700084 = assay: microbe, parasite or virus in culture; type: cell-based
Mtb # 11291 = assay: microbe, parasite or virus in culture; type: cell-based; conditions: for MIC: read-out: MIC Mtb # 11291
Mycobacterium abscessus = assay: microbe, parasite or virus in culture; type: cell-based
[4] = biological target: His6-tagged ClpC1-NTD substrate, M. smegmatis ClpC1P1P2 (UniProt A0R574+P9WPC9); assay: biochemical; type: biochemical
[5] = Microsomal stability, human; type: in vitro ADME; conditions: human, microsomes, pH 7.5
Method in brief: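 Clearance, expressed as % liver blood flow (%Qh), derived by the well-stirred model from first-order half-lives. Depletion monitored by HPLC-MS/MS in acetonitrile-stopped samples over time; 37 °C, NADPH 1 mM, microsomes 0.5 mg/ml, compound 1 µmol/l, Tris-HCl pH 7.5 with MgCl2.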

[6] = Experiment 2, three replicate columns
[7] = Gram-Negative Bacteria, replicates 1-3, listed as 12 (UdSBI-4377)
[8] = Mycobacterium tuberculosis, mean, n = 2 well replicates
[9] = Mycobacterium tuberculosis, single well replicates
[10] = single well replicates, listed as 12 (UdSBI-4377)

Sequence of ClpC1 NTD protein (M. tuberculosis) (P9WPC9 1-156, looked up, natural form): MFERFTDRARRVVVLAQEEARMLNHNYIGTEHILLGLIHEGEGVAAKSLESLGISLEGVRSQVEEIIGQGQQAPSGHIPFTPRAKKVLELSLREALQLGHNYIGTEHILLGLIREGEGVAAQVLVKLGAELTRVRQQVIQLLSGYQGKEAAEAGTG
Sequence of His6-tagged ClpC1-NTD substrate, M. smegmatis ClpC1P1P2 (P9WPC9 1-156, looked up, natural form): as above
Sequence of His6-tagged ClpC1-NTD substrate, M. smegmatis ClpC1P1P2 (A0R574 whole entry): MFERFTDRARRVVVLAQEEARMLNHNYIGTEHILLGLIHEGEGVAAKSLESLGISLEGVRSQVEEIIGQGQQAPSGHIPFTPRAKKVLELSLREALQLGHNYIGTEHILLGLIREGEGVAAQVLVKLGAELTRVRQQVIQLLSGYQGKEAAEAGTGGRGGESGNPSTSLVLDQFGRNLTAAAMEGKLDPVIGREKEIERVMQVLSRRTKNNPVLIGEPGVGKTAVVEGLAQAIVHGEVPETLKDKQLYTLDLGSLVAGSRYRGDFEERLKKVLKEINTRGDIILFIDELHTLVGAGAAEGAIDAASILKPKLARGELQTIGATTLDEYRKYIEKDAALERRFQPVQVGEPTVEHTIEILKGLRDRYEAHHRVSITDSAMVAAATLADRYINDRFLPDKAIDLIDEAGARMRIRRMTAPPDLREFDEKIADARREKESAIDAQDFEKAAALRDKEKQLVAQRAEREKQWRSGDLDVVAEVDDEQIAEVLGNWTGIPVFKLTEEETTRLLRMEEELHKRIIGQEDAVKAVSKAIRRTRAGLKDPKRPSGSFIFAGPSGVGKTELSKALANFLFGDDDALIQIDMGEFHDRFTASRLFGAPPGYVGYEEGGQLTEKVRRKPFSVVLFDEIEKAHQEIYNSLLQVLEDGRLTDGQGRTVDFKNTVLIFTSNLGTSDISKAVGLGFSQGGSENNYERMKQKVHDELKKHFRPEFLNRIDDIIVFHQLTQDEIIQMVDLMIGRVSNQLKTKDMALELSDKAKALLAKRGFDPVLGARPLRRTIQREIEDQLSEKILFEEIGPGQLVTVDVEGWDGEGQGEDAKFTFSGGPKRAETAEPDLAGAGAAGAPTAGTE

COC(c1ccccc1)C1NC(=O)C(C)NC(=O)C(CC(C)CO)N(C)C(=O)C(Cc2cn(C)c3ccccc23)NC(=O)C(Cc2cn(CCCCCn3cc(CC4NC(=O)C(CC(C)C)N(C)C(=O)C(C(C)C)NC(=O)C(C(OC)c5ccccc5)NC(=O)C(C)NC(=O)C(CC(C)CO)N(C)C(=O)C(Cc5cn(C)c6ccccc56)NC4=O)nn3)nn2)NC(=O)C(CC(C)C)N(C)C(=O)C(C(C)C)NC1=O (centres unmarked) [Compound 12]
MIC (Mycobacterium avium; Experiment 1, listed as 12 (UdSBI-4377), read-out: MIC Mycobacterium avium): >50 µM | MIC (µg/ml) Mycobacterium avium (Mycobacterium avium; [6]): >99.02 µg/mL | MIC (Mycobacterium avium; Experiment 2, three replicate columns, read-out: MIC (µM) Mycobacterium avium): >50 µM | MIC (Mycobacterium avium; Mycobacterium avium, Experiment 1, read-out: MIC Mycobacterium avium): > 99 µg/mL | MIC (Mycobacterium avium; Mycobacterium avium, Experiment 2, three replicate columns, read-out: MIC (µM) Mycobacterium avium): > 50 µM | MIC (Mycobacterium avium; Mycobacterium avium, Experiment 2, three replicate columns, read-out: MIC (µg/ml) Mycobacterium avium): > 99 µg/mL | MIC (Mycobacterium avium; Mycobacterium avium, mean ± SD, read-out: MIC Mycobacterium avium): > 50 µM | MIC (Enterobacter cloacae; Enterobacter cloacae, Gram negative, n = 3 well replicates): > 50 µM | MIC (Enterobacter cloacae; Enterobacter cloacae, Gram-Negative Bacteria, replicates 1-3): > 99 µg/mL | MIC (Enterobacter cloacae; [7]): >50 µM | CACO permeability PEAB (Caco-2 monolayers): 0.73 ×10⁻⁶ cm/s | CACO permeability PEBA (Caco-2 monolayers): 0.25 ×10⁻⁶ cm/s | Caco-2 Efflux ratio (Caco-2 monolayers): 0.3 | Caco-2 Int. Perm (Caco-2 monolayers): 0.5 | Caco-2 permeability P (A-B) (Caco-2 monolayers): 0.7 | Caco-2 permeability P (B-A) (Caco-2 monolayers): 0.2 | MIC (Msm 607; Mycolicibacterium smegmatis, 607, read-out: MIC Msm 607): 0.9 ± 0.3 µM (≈ 1.78 µg/mL) | MIC (Msm 607; Mycolicibacterium smegmatis, 607, read-out: MIC Msm #607, individual example (Supplementary Table 11)): 0.8 µM and 1.5 µg/mL | MIC (Msm 607; Mycolicibacterium smegmatis, 607, read-out: Msm 607 MIC, single determinations): 1.56 µM (≈ 3.09 µg/mL) | MIC (Msm 607; Mycolicibacterium smegmatis, ATCC607, Set-1, read-out: MIC (Msm ATCC607) Set-1): 0.78 µM and 1.54 µg/mL | MIC (Msm 607; Mycolicibacterium smegmatis, ATCC607, Set-2, read-out: MIC (Msm ATCC607) Set-2): 1.54 µM and 3.06 µg/mL | MIC (Msm 607; Mycolicibacterium smegmatis, ATCC607, Set-3, done at a different day than Set 1 and Set 2, read-out: MIC (Msm ATCC607) Set-3): 0.78 µM and 1.54 µg/mL | MIC (Msm 607; Mycolicibacterium smegmatis, ATCC607, mean of 3 experiments ± SD, read-out: MIC including standard deviations (Msm ATCC607)): 1.03 µM and 2.04 µg/mL | Msm 607 MIC (Msm 607; single determinations, listed as 12 (UdSBI-4377)): 0.780 µM | Kd ([1]; individual measurements (source data), listed as 12 (UdSBI-4377), read-out: KD ClpC1-NTD): 0.169 nM and 0.284 nM and 0.283 nM and 0.407 nM and 0.412 nM and 0.327 nM and 0.181 nM and 0.203 nM and 0.279 nM | Kd ([1]; read-out: ClpC1-NTD KD Mean ± SD): 0.28 ± 0.08 nM | improvement of SPR KD to ClpC1-NTD, dimer versus monomer (factor) ([1]; monomeric 10 to dimeric 12 / Homo-BacPROTACs versus monomeric compounds): 10 | MIC ([2]; M. tuberculosis H37Rv 27294, single well replicates, read-out: MIC): 0.098 µM (≈ 0.194 µg/mL) | MIC ([2]; Mycobacterium tuberculosis, M. tuberculosis H37Rv 27294, single well replicates, read-out: MIC): 0.098 µM (≈ 0.194 µg/mL) | MIC ([2]; Mycobacterium tuberculosis, M. tuberculosis H37Rv strain, read-out: MIC Mtb H37Rv Mean ± SD): 0.1 µM (≈ 0.198 µg/mL) | MIC ([2]; Mycobacterium tuberculosis, Mtb H37Rv (Supplementary Table 2), read-out: MIC Mtb): 0.1 µM (≈ 0.198 µg/mL) | MIC ([2]; Mycobacterium tuberculosis, Mtb H37Rv, mean ± SD, n = 3 well replicates, read-out: MIC): 0.1 µM (≈ 0.198 µg/mL) | MIC ([2]; Mycobacterium tuberculosis, Set 1, read-out: MIC (Mtb H37Rv) Set 1): 0.05 µM and 0.095 µg/mL | MIC ([2]; Mycobacterium tuberculosis, Set 2, read-out: MIC (Mtb H37Rv) Set 2): 0.05 µM and 0.095 µg/mL | MIC ([2]; Mycobacterium tuberculosis, Set 3, done at a different day than Set 1 and Set 2, read-out: MIC (Mtb H37Rv) Set 3): 0.05 µM and 0.095 µg/mL | MIC ([2]; Mycobacterium tuberculosis, individual example (Supplementary Table 11), read-out: MIC Mtb H37Rv): 0.05 µM and 0.1 µg/mL | MIC ([2]; Mycobacterium tuberculosis, individual measurements (source data), read-out: Mtb MIC): 0.097 µM (≈ 0.192 µg/mL) | MIC ([2]; Mycobacterium tuberculosis, mean of 3 experiments +/- SD, unit taken from the sets above in the same table, read-out: MIC data (Mtb H37Rv) (+/- SD)): 0.05 µM and 0.1 µg/mL | MIC ([2]; Mycobacterium tuberculosis, single determinations, read-out: Mtb MIC): 0.097 µM (≈ 0.192 µg/mL) | MIC ([2]; Mycobacterium tuberculosis, value of the earlier manuscript version quoted in the peer review file, read-out: inhibition of the Mtb growth (MIC)): 0.097 µM (≈ 0.192 µg/mL) | MIC ([2]; individual measurements (source data), read-out: Mtb MIC): 0.097 µM (≈ 0.192 µg/mL) | MIC (Mtb # 8673; [8]): < 0.1 µM and < 0.2 µg/mL | MIC (Mtb # 8673; [9]): < 0.1 µM and < 0.19 µg/mL | MIC (Mtb # 8673; [10]): <0.1 µM | MIC Mtb # 8673 (Mtb # 8673; [10]): <0.19 µg/mL | MIC ([3]; M. tuberculosis ATCC 35822, single well replicates): 0.098 µM (≈ 0.194 µg/mL) | MIC ([3]; Mycobacterium tuberculosis, ATCC35822, M. tuberculosis ATCC 35822, single well replicates): 0.098 µM (≈ 0.194 µg/mL) | MIC ([3]; Mycobacterium tuberculosis, ATCC35822, Mtb (katG del) ATCC 35822, mean ± SD, n = 3 well replicates): 0.1 µM (≈ 0.198 µg/mL) | MIC (Salmonella typhimurium; [7]): >50 µM | MIC (Salmonella typhimurium; Salmonella enterica, TYPHIMURIUM, Gram negative, n = 3 well replicates): > 50 µM | MIC (Salmonella typhimurium; Salmonella enterica, TYPHIMURIUM, Gram-Negative Bacteria, replicates 1-3): > 99 µg/mL | MIC (Msm 700084; Mycolicibacterium smegmatis, 700084, single determinations, read-out: Msm 700084 MIC): > 50 µM | MIC (Msm 700084; Mycolicibacterium smegmatis, 700084, read-out: MIC Msm 700084): > 50 µM | MIC (Mtb # 11291; [8]): < 0.1 µM and < 0.2 µg/mL | MIC (Mtb # 11291; [9]): < 0.1 µM and < 0.19 µg/mL | MIC Mtb # 11291 (Mtb # 11291; [10]): <0.19 µg/mL | MIC (Mtb # 11291; [10]): <0.1 µM | MIC (µg/ml) Mycobacterium abscessus (Mycobacterium abscessus; [6]): >99.02 µg/mL | MIC (Mycobacterium abscessus; Experiment 2, three replicate columns, read-out: MIC (µM) Mycobacterium abscessus): >50 µM | MIC (Mycobacterium abscessus; Mycobacteroides abscessus, Experiment 1, read-out: MIC Mycobacterium abscessus): > 50 µM and > 99 µg/mL | MIC (Mycobacterium abscessus; Mycobacteroides abscessus, Experiment 2, three replicate columns, read-out: MIC (µM) Mycobacterium abscessus): > 50 µM | MIC (Mycobacterium abscessus; Mycobacteroides abscessus, Experiment 2, three replicate columns, read-out: MIC (µg/ml) Mycobacterium abscessus): > 99 µg/mL | MIC (Mycobacterium abscessus; Mycobacteroides abscessus, mean ± SD, read-out: MIC Mycobacterium abscessus): > 50 µM | DC50 ([4]; read-out: DC50, single measurements): 10300 nM and 9300 nM and 5300 nM and 8300 nM and 7600 nM | DC50 ([4]; read-out: DC50 M.smegmatis ClpC1P1P2 Mean): 8400 nM | Dmax ([4]; read-out: DMax M.smegmatis ClpC1P1P2 Mean): 81% | Microsomal Stability Human [5]: < 24 %Qh | Microsomal Stability Human QH [5]: <24.4%
